In US6958416B2, “Valproyltaurinamide derivatives as anticonvulsant amd CNS active agents” (Yissum Research Development Company of the Hebrew …, priority 2001, dated 2005):
Like-named read-outs stand apart in the source and are kept apart here.

Experiments:
[1] = system: maximal electroshock seizure (MES); assay: maximal electroshock seizure test (MES); type: in vivo; conditions: rats; for anticonvulsant activity in the MES test: result in words; for ED50: Rattus norvegicus
Excerpt: (§1) The first model the maximal electroshock seizure test (MES), is used to show efficacy for antiepileptic agents against partial and generalized seizure type epilepsy, the common epilepsy among therapy resistant epileptic patients. The second model, the subcutaneous pentylenetetrazole test (s.c. Met) which measures seizure threshold and is a standard screening procedure to show efficacy for agents against […] seizures. In these studies, convulsions were inhibited or prevented after oral (p.o.) and intraperitoneal (ip) administration of the compounds.

[2] = system: subcutaneous pentylenetetrazole induced convulsions (seizure threshold); assay: subcutaneous pentylenetetrazole test (s.c. Met); type: in vivo; conditions: rats, table title: oral administration; for ED50: Rattus norvegicus, read-out: sc Met ED50
Excerpt: as §1

audiogenic seizures = audiogenic seizures in Frings audiogenic seizure susceptible mice; type: in vivo; conditions: for potency compared with VPA in audiogenic seizure model: in words
Description: In mice the compounds were tested for their ability to protect against audiogenic seizures in the Frings audiogenic seizure susceptible mice after ip administration. This model is considered as a good screening model in pharmacologic studies for CNS active compounds.

[3] = Neurotoxicity, Gait and Stance test
Description: Neurotoxicity of the agents was assessed in rats (p.o. and ip administration) in the Gait and Stance test and in mice in the Rotarod Ataxia test, which assess minimal neurotoxicity.

6 Hz psychomotor seizure = 6 Hz psychomotor seizure model; type: in vivo; conditions: Mus musculus; mice ip, stimulation intensity 22 mA
[4] = Pharmacokinetics in mongrel dogs; type: in vivo
Description: The pharmacokinetics of Compound A were evaluated in mongrel dogs.

[5] = po, p.o. administration, read-out: MES ED50 (mg/kg po)

CCCC(CCC)C(=O)NCCS(=O)(=O)N(C)C [B, N-(2-Propylpentanoyl)taurine-N′,N′-dimethylamide]
MES ED50 (mg/kg ip) ([1]; ip administration): 50 mg/kg | MES ED50 (mg/kg po) ([1]; p.o. administration): >160 mg/kg | anticonvulsant activity in the MES test [1]: showed anticonvulsant activity | sc Met ED50 [2]: >200 mg/kg | Audiogenic seizures ED50 (audiogenic seizures; ip administration): 134 mg/kg | potency compared with VPA in audiogenic seizure model (audiogenic seizures; ip): more potent than VPA | Neurotoxicity TD50 (mg/kg ip) ([3]; rats, ip administration): 175 mg/kg | TD50 compared with VPA ([3]; rats, in words): significantly higher than TD50 for VPA

CCCC(CCC)C(=O)NCCS(=O)(=O)NC(C)C [C, N-(2-Propylpentanoyl)taurine-N′-isopropylamide]
MES ED50 (mg/kg ip) ([1]; ip administration): 52 mg/kg | MES ED50 (mg/kg po) ([1]; p.o. administration): 63 mg/kg | anticonvulsant activity in the MES test [1]: showed anticonvulsant activity | sc Met ED50 [2]: >250 mg/kg | Audiogenic seizures ED50 (audiogenic seizures; ip administration): 126 mg/kg | potency compared with VPA in audiogenic seizure model (audiogenic seizures; ip): more potent than VPA | Neurotoxicity TD50 (mg/kg ip) ([3]; rats, ip administration): 627 mg/kg | TD50 compared with VPA ([3]; rats, in words): significantly higher than TD50 for VPA

CCCC(CCC)C(=O)NCCS(N)(=O)=O [Compound A, N-(2-Propylpentanoyl)taurinamide]
ED50 [1, 5]: 65 mg/kg | ED50 ([1]; ip administration, read-out: MES ED50 (mg/kg ip)): 50 mg/kg | anticonvulsant activity in the MES test [1]: showed anticonvulsant activity | ED50 [2]: > 250 mg/kg | ED50 (audiogenic seizures; Mus musculus, ip, ip administration): 50 to 140 mg/kg | Audiogenic seizures ED50 (audiogenic seizures; ip administration): 51 mg/kg | audiogenic seizure ED50 compared with VPA (audiogenic seizures; ip, relative to VPA): 3 times lower | ED50 (6 Hz psychomotor seizure): 188 mg/kg | TD50 compared with VPA ([3]; rat, in vivo): significantly higher than TD50 for VPA | Neurotoxicity TD50 (mg/kg ip) ([3]; rat, in vivo, ip): >300 mg/kg | TD50 ([3]; rat, in vivo, ip): > 300 mg/kg | Neurotoxicity TD50 (mg/kg po) ([3]; rat, in vivo, po): >500 mg/kg | TD50 ([3]; rat, in vivo, po): > 500 mg/kg | half-life ([4]; dog, in vivo): 5.6 h | Vd ([4]; dog, in vivo, read-out: Volume of distribution at steady state (Vss)): 0.84 L/kg | clearance ([4]; dog, in vivo, read-out: total body clearance (CL) (converted)): 1.83 mL/min/kg | liver extraction ratio ([4]; in words): low

CCCC(CCC)C(=O)NCCS(=O)(=O)N(CC)CC [N-(2-n-propylpentanoyl)taurine-N′,N′-diethylamide]
anticonvulsant activity in the MES test [1]: showed anticonvulsant activity

CCCC(CCC)C(=O)NCCS(=O)(=O)NCC [N-(2-n-propylpentanoyl)taurine-N′-ethylamide]
anticonvulsant activity in the MES test [1]: showed anticonvulsant activity

CCCC(CCC)C(=O)NCCS(=O)(=O)NC [N-(2-n-propylpentanoyl)taurine-N′-methylamide]
anticonvulsant activity in the MES test [1]: showed anticonvulsant activity

CCCC(CCC)C(=O)O [VPA, valproic acid, reference compound]
ED50 [1, 5]: 490 mg/kg | ED50 [2]: 180 mg/kg | TD50 ([3]; rat, in vivo, po): 200 mg/kg
